From patent US11306078B2, “Piperidine CXCR7 receptor modulators” (IDORSIA PHARMACEUTICALS LTD., priority 2016, dated 2022) come the findings set out here.

human chemokine receptor CXCR7, sequence (P25106 whole entry): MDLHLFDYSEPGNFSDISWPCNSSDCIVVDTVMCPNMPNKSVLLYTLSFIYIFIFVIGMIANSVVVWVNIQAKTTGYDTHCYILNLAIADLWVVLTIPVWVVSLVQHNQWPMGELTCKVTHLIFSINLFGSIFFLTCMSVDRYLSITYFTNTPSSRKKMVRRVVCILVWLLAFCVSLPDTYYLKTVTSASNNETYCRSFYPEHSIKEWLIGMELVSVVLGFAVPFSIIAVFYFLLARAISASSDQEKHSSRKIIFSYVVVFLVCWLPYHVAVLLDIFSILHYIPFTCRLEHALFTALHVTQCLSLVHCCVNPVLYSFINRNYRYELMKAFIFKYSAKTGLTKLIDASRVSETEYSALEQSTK

This test has as its target human chemokine receptor CXCR7 (Homo sapiens (Human), UniProt P25106). The experiment in a line: Tango CXCR7-bla U2OS beta-arrestin recruitment assay (beta-lactamase reporter, FRET), antagonism of CXCL12/SDF1-α.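 Further: compounds preincubated 15 min before CXCL12 addition, then 22 h at 37 °C, FRET emission ratio read with CCF4-AM substrate after 2 h.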 In kind it is cell-based. Particulars: antagonistic effect on CXCR7; Tango CXCR7-bla U2OS cells, CXCL12/SDF1-α at its EC80. Background: Recruitment of arrestin is a read-out of receptor activation apart from second messengers.
What is called IC50 is the concentration that gives 50% inhibition. A lower IC50 goes with higher potency. `Cc1cccc([C@@H](C)NC(=O)[C@@H]2CN(C3CCCCC3)CC[C@H]2NC(=O)c2cc(-c3ccc(F)cc3F)on2)n1` (single isomer, unassigned) [Example 1.188a, (3R*,4R*)-1-Cyclohexyl-4-{[5-(2,4-difluoro-phenyl)-isoxazole-3-carbonyl]-amino}-piperidine-3-carboxylic acid [(R)-1-(6-methyl-pyridin-2-yl)-ethyl]-amide] displayed an IC50 of 3 nM.

The molecule `O=C(N[C@@H]1CCN(C2CCCCC2)C[C@H]1C(=O)NC1(c2ccccn2)CC1)c1cn(-c2ccc(F)cc2F)nn1` (racemic) [Example 1.165, rac-(3R*,4R*)-1-Cyclohexyl-4-{[1-(2,4-difluoro-phenyl)-1H-[1,2,3]triazole-4-carbonyl]-amino}-piperidine-3-carboxylic acid (1-pyridin-2-yl-cyclopropyl)-amide] returned an IC50 of 92 nM.

Consider `C=CCN1CC[C@H](NC(=O)c2cc(-c3ccc(F)cc3F)on2)[C@@H](C(=O)NC2(c3ncccn3)CC2)C1` [Example 2.093], for which the IC50 turned out to be 26 nM.

`CN(C)C(=O)[C@@H]1CN([C@@H]2CCCC[C@H]2O)CC[C@H]1NC(=O)c1cc(-c2ccc(F)cc2F)on1` [Example 2.048] showed an IC50 of 501 nM.

`COCC(C)(C)NC(=O)[C@@H]1CN(C2CCCC2)CC[C@H]1NC(=O)c1cc(-c2c(F)cc(F)cc2F)on1` (racemic) [Example 1.112, rac-(3R*,4R*)-1-Cyclopentyl-4-{[5-(2,4,6-trifluoro-phenyl)-isoxazole-3-carbonyl]-amino}-piperidine-3-carboxylic acid (2-methoxy-1,1-dimethyl-ethyl)-amide]: the IC50 was found to be 227 nM. This IC50 is about 2.2-fold lower than that of the molecule before.

Take `O=C(N[C@@H]1CCN(C2CCC2)C[C@H]1C(=O)NC1(Cc2ccccc2)COC1)c1cc(-c2ccc(F)cc2F)on1` [Example 4.085]: the IC50 turned out to be 61 nM.

`O=C(N[C@H]1CCN(CC2CC2)C[C@@H]1C(=O)NC1(c2ccncn2)CC1)c1cc(-c2ccc(F)cc2F)on1` [Example 4.055] registered an IC50 of 16 nM.

`C[C@@H](NC(=O)[C@@H]1CN(C2CCCC2)CC[C@H]1NC(=O)c1cc(-c2c(F)cc(F)cc2F)on1)C1CCC1` (racemic) [Example 1.138, (3R*,4R*)-1-Cyclopentyl-4-{[5-(2,4,6-trifluoro-phenyl)-isoxazole-3-carbonyl]-amino}-piperidine-3-carboxylic acid ((R)-1-cyclobutyl-ethyl)-amide] registered an IC50 of 816 nM.

Molecule `O=C(N[C@H]1CCN(CC2CC2)C[C@@H]1C(=O)N1CC[C@@H]1c1ccccc1)c1cc(-c2ccc(F)cc2F)on1` [Example 4.067a] returned an IC50 of 20 nM.

Regarding `Cc1nc(CNC(=O)[C@@H]2CN(C3CCCCC3)CC[C@H]2NC(=O)c2cc(-c3ccc(F)cc3F)on2)cs1` (racemic) [Example 1.031, rac-(3R*,4R*)-1-Cyclohexyl-4-{[5-(2,4-difluoro-phenyl)-isoxazole-3-carbonyl]-amino}-piperidine-3-carboxylic acid (2-methyl-thiazol-4-ylmethyl)-amide], the IC50 was determined as 855 nM. This IC50 is about 43-fold higher than that of the molecule before.

Molecule `COC(=O)C1CN(C2CCCCC2)CCC1NC(=O)c1noc(-c2ccc(F)c(F)c2)n1` (centres unmarked) [BB 1.18c] came in with an IC50 of 119 nM. Compared with the last molecule, the IC50 is about 7.2-fold lower.

`C[C@@H]1CCC[C@H]1N1CC[C@@H](NC(=O)c2cc(-c3ccc(F)cc3F)no2)[C@H](C(=O)N[C@H](C)C2CCC2)C1` (relative stereo) [Example 1.162, (3R*,4R*)-4-{[3-(2,4-Difluoro-phenyl)-isoxazole-5-carbonyl]-amino}-1-((1RS,2RS)-2-Methyl-cyclopentyl)-piperidine-3-carboxylic acid ((R)-1-cyclobutyl-ethyl)-amide] yielded an IC50 of 638 nM.

The molecule `CN(C)C(=O)[C@@H]1CN(C2CCCCC2)CC[C@H]1NC(=O)c1nc(-c2ccc(F)cc2F)no1` (racemic) [Example 3.019, rac-(3R*,4R*)-1-Cyclohexyl-4-{[3-(2,4-difluoro-phenyl)-[1,2,4]oxadiazole-5-carbonyl]-amino}-piperidine-3-carboxylic acid dimethylamide] showed an IC50 of 778 nM.

Consider `CN(C)C(=O)[C@@H]1CN(CC2CC2)CC[C@H]1NC(=O)c1cc(-c2ccc(F)cc2F)on1` [Example 2.045], for which the IC50 was 114 nM.

On to `O=C(N[C@H]1CCN(CC2(C(F)F)CC2)C[C@@H]1C(=O)NC1(c2ncccn2)CC1)c1cc(-c2ccc(F)cc2F)on1` [Example 2.067], for which the IC50 was 18 nM.

Consider `O=C(N[C@H]1CCN(CC2CC2)C[C@@H]1C(=O)N1CC[C@@H]1c1ncccn1)c1cc(-c2ccc(F)cc2F)on1` [Example 4.079a], for which the IC50 turned out to be 186 nM.

For the molecule `Cc1ccccc1CCNC(=O)[C@@H]1CN(C2CCCCC2)CC[C@H]1NC(=O)c1cc(-c2ccc(F)cc2F)on1` (racemic) [Example 1.056, rac-(3R*,4R*)-1-Cyclohexyl-4-{[5-(2,4-difluoro-phenyl)-isoxazole-3-carbonyl]-amino}-piperidine-3-carboxylic acid (2-o-tolyl-ethyl)-amide], 4 nM corresponded to half-maximal inhibition (IC50).

`O=C(N[C@H]1CCN(CC2CC2)C[C@@H]1C(=O)NC1(c2ncccn2)CC1)c1cc(-c2ccc(Cl)cc2Cl)on1` (single isomer, unassigned) [Example 1.189a, (3S,4S)-1-Cyclopropylmethyl-4-{[5-(2,4-dichloro-phenyl)-isoxazole-3-carbonyl]-amino}-piperidine-3-carboxylic acid (1-pyrimidin-2-yl-cyclopropyl)-amide or (3R,4R)-1-Cyclopropylmethyl-4-{[5-(2,4-dichloro-phenyl)-isoxazole-3-carbonyl]-amino}-piperidine-3-carboxylic acid (1-pyrimidin-2-yl-cyclopropyl)-amide] yielded an IC50 of 15 nM.

Molecule `O=C(N[C@@H]1CCN(C2CCCCC2)C[C@H]1C(=O)NCc1cccnc1)c1cc(-c2ccc(F)cc2F)on1` (racemic) [Example 1.048, rac-(3R*,4R*)-1-Cyclohexyl-4-{[5-(2,4-difluoro-phenyl)-isoxazole-3-carbonyl]-amino}-piperidine-3-carboxylic acid (pyridin-3-ylmethyl)-amide] yielded an IC50 of 275 nM.

With `O=C(N[C@@H]1CCN(C2CCCCC2)C[C@H]1C(=O)NC1(c2ccccn2)CC1)c1nnc(-c2ccc(F)cc2F)o1` (racemic) [Example 3.012, rac-(3R*,4R*)-1-Cyclohexyl-4-{[5-(2,4-difluoro-phenyl)-[1,3,4]oxadiazole-2-carbonyl]-amino}-piperidine-3-carboxylic acid (1-pyridin-2-yl-cyclopropyl)-amide], the IC50 stood at 26 nM. This IC50 lies about 11-fold lower than the previous one.

`O=C(N[C@@H]1CCN(CC2CC2)C[C@H]1C(=O)N1CCC1)c1cc(-c2c(F)cc(F)cc2F)on1` (racemic) [Example 1.107, rac-5-(2,4,6-Trifluoro-phenyl)-isoxazole-3-carboxylic acid [(3R*,4R*)-3-(azetidine-1-carbonyl)-1-cyclopropylmethyl-piperidin-4-yl]-amide] showed an IC50 of 520 nM.

As for `O=C(N[C@@H]1CCN(CC2CC2)C[C@H]1C(=O)NC1(c2ncccn2)CC1)c1noc(-c2ccc(F)cc2)c1F` (racemic) [Example 3.021, rac-(3R*,4R*)-1-Cyclopropylmethyl-4-{[4-fluoro-5-(4-fluoro-phenyl)-isoxazole-3-carbonyl]-amino}-piperidine-3-carboxylic acid (1-pyrimidin-2-yl-cyclopropyl)-amide], the IC50 came out at 40 nM.

Take `CN(C)C(=O)[C@@H]1CN(C2CCCCC2)CC[C@H]1NC(=O)c1noc(-c2ccc(F)cc2F)n1` (racemic) [Example 3.007, rac-(3R*,4R*)-1-Cyclohexyl-4-{[5-(2-difluoro-phenyl)-[1,2,4]oxadiazole-3-carbonyl]-amino}-piperidine-3-carboxylic acid dimethylamide]: the IC50 came out at 162 nM.

As to `O=C(N[C@@H]1CCN(C2CCCCC2)C[C@H]1C(=O)NCc1ccncc1)c1cc(-c2ccc(F)cc2F)on1` [Example 1.05], the IC50 amounted to 223 nM. The IC50 values of the last two molecules are within 1.5-fold of each other.

Molecule `O=C(N[C@@H]1CCN(C2CCCCC2)C[C@H]1C(=O)N[C@H]1C[C@@H]1c1ccccc1)c1cc(-c2c(F)cc(F)cc2F)on1` (single isomer, unassigned) [Example 1.046a] had an IC50 of 474 nM.

Turning to `O=C(N[C@H]1CCN(CC2CC2)C[C@@H]1C(=O)NC1(c2ccccc2)CC1)c1cc(-c2ccc(F)cc2F)on1` [Example 4.053], the IC50 turned out to be 1 nM.

`O=C(N[C@H]1CCN(CC2CC2)C[C@@H]1C(=O)NC1(c2cncnc2)CC1)c1cc(-c2ccc(F)cc2F)on1` [Example 4.081] registered an IC50 of 426 nM. This IC50 is about 430-fold higher than that of the molecule before.

Take `CCN(C)C(=O)[C@@H]1CN(CC2CC2)CC[C@H]1NC(=O)c1cc(-c2ccc(F)cc2F)on1` [Example 2.077]: the IC50 stood at 112 nM.

Consider `CC(NC(=O)[C@@H]1CN(C2CCCCC2)CC[C@H]1NC(=O)c1cc(-c2ccc(F)cc2F)on1)c1ccncn1` (relative stereo) [Example 1.063, (3R*,4R*)-1-Cyclohexyl-4-{[5-(2,4-difluoro-phenyl)-isoxazole-3-carbonyl]-amino}-piperidine-3-carboxylic acid ((1RS)-1-(pyrimidin-4-yl)-ethyl)-amide], for which inhibition was half-maximal at 107 nM (IC50).

As to `O=C(N[C@@H]1CCN(CC2CC2)C[C@H]1C(=O)NC1(c2ccccn2)CC1)c1cn(-c2ccc(F)cc2F)nn1` (racemic) [Example 1.167, rac-(3R*,4R*)-1-Cyclopropylmethyl-4-{[1-(2,4-difluoro-phenyl)-1H-[1,2,3]triazole-4-carbonyl]-amino}-piperidine-3-carboxylic acid (1-pyridin-2-yl-cyclopropyl)-amide], the 50% inhibitory concentration (IC50) was 134 nM.

For `CN(CCc1ccccc1)C(=O)[C@@H]1CNCC[C@H]1NC(=O)c1cc(-c2ccc(F)cc2F)on1` [Example 2.058], half-maximal inhibition (IC50) was put at 347 nM.

The molecule `C[C@@H](NC(=O)[C@@H]1CN(C2CCCC2)CC[C@H]1NC(=O)c1cn(-c2ccc(F)cc2F)nn1)c1cnccn1` (relative stereo) [Example 1.128, (3R*,4R*)-1-Cyclopentyl-4-{[1-(2,4-difluoro-phenyl)-1H-[1,2,3]triazole-4-carbonyl]-amino}-piperidine-3-carboxylic acid ((R)-1-pyrazin-2-yl-ethyl)-amide] showed an IC50 of 124 nM.
